Test results from US10570104B2, “Metabolically programmed metal chelators and uses thereof” (University of Florida Research Foundation, Incorporated, priority 2015, dated 2020).
“Also recorded” adds a separate entry of the source. Where two headings read alike, the source gives them in different places. Each block holds one compound with its values, some of them ahead of it.

Assays:
[1] = cited from earlier work
[2] = po, 300 μmol/kg; historical; cited from earlier work
[3] = log Papp, octanol/TRIS buffer pH 7.4, shake flask direct method; assay type: physicochemical; details: not told
Description: The redesign of 2 was predicated on the observation that both ligands 2 and 3 were orally active iron chelators in rodents and primates (Table 1), and that when the 4′-(OH) of 2 was methylated, providing (S)-4,5-dihydro-2-(2-hydroxy-4-methoxyphenyl)-4-methyl-4-thiazolecarboxylic acid^43 [(S)-4′-(CH3O)-DADFT, 4], there was a remarkable enhancement in both ICE and lipophilicity (log Papp). The log Papp data are expressed as the log of the fraction of the chelator seen in the octanol layer; measurements were done in TRIS buffer, pH 7.4, using a “shake flask” direct method.^49 The more negative the log Papp, the less chelator is in the octanol phase, the less lipophilic. Unfortunately, the increase in ICE of 4 came with a concomitant increase in toxicity.^50 Thus, the delicate balance between the increase in ICE and toxicity with enhanced lipophilicity needed to be understood and exploited.

[4] = po, 150 μmol/kg; historical; cited from earlier work
[5] = Chelator-induced iron clearance (ICE) in iron-overloaded Cebus apella primates; assay type: in vivo, Cebus apella monkeys; details: 75 μmol/kg, monosodium salt
Experimental: Iron Loading of Cebus apella Monkeys. The monkeys (3.5-6.5 kg) were iron overloaded with intravenous iron dextran as specified in earlier publications to provide about 500 mg of iron per kg of body weight; the serum transferrin iron saturation rose to between 70 and 80%.^38,40 At least 20 half-lives, 60 days, elapsed before any of the animals were used in experiments evaluating iron-chelating agents.
Primate Fecal and Urine Samples. Fecal and urine samples were collected at 24 hours intervals and processed as described previously^38,40,74 Briefly, the collections began 4 days prior to the administration of the test drug and continued for an additional 5 days after the drug was given. Iron concentrations were determined by flame absorption spectroscopy as presented in other publications.^38′^40
Drug Preparation and Administration.
Calculation of Chelator Iron Clearing Efficiency (ICE).

[6] = Tissue distribution/metabolism of chelators in rats given sc (HPLC); assay type: in vivo, Sprague-Dawley rats
Experimental: Collection of Chelator Tissue Distribution Samples from Rodents. Male Sprague-Dawley rats (250-350 g) were given a single subcutaneously injection of the monosodium salts of 8 and 11 prepared as described above at a dose of […]. At times 0.5, 1, 2, 4 and 8 hours after dosing (n=3 rats per time point), the animals were euthanized by exposure to CO2 gas. Blood was obtained via cardiac puncture into vacutainers containing sodium citrate. The blood was centrifuged, and the plasma was separated for analysis. The liver, kidney, heart, and pancreas were removed from the animals and frozen.
Tissue Analytical Methods. Tissue samples of animals treated with 8 were prepared for HPLC analysis by homogenizing them in H2O at a ratio of 1:1 (w/v). Then, as a rinse, CH3OH at a ratio of 1:3 (w/v) was added, and the mixture was stored at −20° C. for 30 min. This homogenate was centrifuged. The supernatant was diluted with H2O, vortexed, and filtered with a 0.2 μm membrane. Analytical separation was performed on a Supelco Discovery RP Amide C16 HPLC system with UV detection at 310 nm as described previously.^44,75 Mobile phase and chromatographic conditions were as follows: solvent A, 5% CH3CN/95% buffer (25 mM KH2PO4+2.5 mM 1-octanesulfonic acid, pH 3.0); solvent B, 60% CH3CN/40% buffer.
Tissue samples of animals treated with 11 were prepared for HPLC analysis by homogenizing them in 0.5 N HClO4 at a ratio of 1:3 (w/v). Then, as a rinse, CH3OH at a ratio of 1:3 (w/v) was added, and the mixture was stored at −20° C. for 30 min. This homogenate was centrifuged. The supernatant was diluted with 95% buffer (25 mM KH2PO4, pH 3.0)/5% CH3CN, vortexed, and filtered with a 0.2 μm membrane. Analytical separation was performed on a Supelco Ascentis Express RP-Amide HPLC system with UV detection at 310 nm as described previously. Mobile phase and chromatographic conditions were as for 8.
Ligand concentrations were calculated from the peak area fitted to calibration curves by nonweighted least-squares linear regression with Shimadzu Class-VP 7.4 software.

[7] = for Rat ICE (%): 300 μmol/kg, monosodium salt

SMILES: CCCCOc1ccc(C2=N[C@@H](C(=O)O)CS2)c(O)c1 [4′-butoxy analogue of 2, (S)-2-(4-butoxy-2-hydroxyphenyl)-4,5-dihydro-4-thiazolecarboxylic acid]
time of deaths ([1]; same scenario as with 10): ≤ 24 h

SMILES: C[C@]1(C(=O)O)CSC(c2ccccc2O)=N1 [Compound 1a, (S)-4,5-dihydro-2-(2-hydroxyphenyl)-4-methyl-4-thiazolecarboxylic acid]
gastrointestinal toxicity ([1]; in vivo): serious gastrointestinal (GI) problems
nephrotoxicity ([1]; in vivo): not overtly nephrotoxic

Log Papp [3]: −1.17
SMILES: C[C@]1(C(=O)O)CSC(c2cccc(O)c2O)=N1 [Compound 3, (S)-2-(2,3-dihydroxyphenyl)-4,5-dihydro-4-methyl-4-thiazolecarboxylic acid]
Rodent ICE (%) [2]: 4.6 ± 0.9%
Primate ICE (%) [4]: 23.1 ± 5.9%

SMILES: C[C@]1(C(=O)O)CSC(c2ccc(OCCOCCO)cc2O)=N1 [Compound 8, (S)-4,5-dihydro-2-[2-hydroxy-4-(5-hydroxy-3-oxapentyloxy)phenyl]-4-methyl-4-thiazolecarboxylic acid]
Cebus ICE (%) ([5]; po): 9.8±3.4%
share of total drug concentration ([6]; sc 7, plasma, 0.5 hour): 5%
share of drug (parent+metabolite) ([6]; sc 8, 300 μmol/kg, liver, 0.5 hour): 53%
detection in liver ([6]; sc 8, 300 μmol/kg, liver, 8 hours): very little parent alcohol 8
proportion of 8 converted to 9 ([6]; sc 8, 300 μmol/kg, plasma, 0.5 hour post drug): ~60%
detection in plasma ([6]; sc 8, 300 μmol/kg, plasma, 8 hour): Neither the parent 8 nor the metabolite 9 was found at the 8 hour time point
conversion of 8 to 9 ([6]; sc 8, 300 μmol/kg, tissues): very efficiently oxidized to carboxylic acid 9; also recorded: very efficiently converted to acid 9; also recorded: very quickly oxidized to 9
Log Papp [3]: −0.53
Rat ICE (%) ([7]; po): 15.4 ± 5.6%

SMILES: COCCCCCCOc1ccc(C2=N[C@@](C)(C(=O)O)CS2)c(O)c1 [Compound 10, (S)-4,5-dihydro-2-[2-hydroxy-4-(6-methoxyhexyloxy)phenyl]-4-methyl-4-thiazolecarboxylic acid]
Log Papp [3]: 0.95
time of death post drug ([7]; po 300 μmol/kg, bile duct-cannulated rats, one animal): about 22 hours
drug-induced iron excretion, peak ([7]; po 300 μmol/kg, 6 hours post drug): 300 μg/kg of iron
drug-induced iron excretion ([7]; po 300 μmol/kg, 24 hours post dosing): 80 μg/kg of iron
Rat ICE (%) ([7]; po): 15.8 ± 3.7%
overt toxicity ([7]; rats, po 300 μmol/kg, single dose): profoundly toxic; also recorded: very toxic; also recorded: Toxic in Rats

SMILES: C[C@]1(C(=O)O)CSC(c2ccc(OCCCCCC(=O)O)cc2O)=N1 [Compound 12, (S)-4,5-dihydro-2-[2-hydroxy-4-(5-carboxypentyloxy)phenyl]-4-methyl-4-thiazolecarboxylic acid]
Cebus ICE (%) ([5]; po): 10.6±4.0%
Cebus ICE (%) ([5]; sc): 18.8±8.7%
detection in heart ([6]; sc 11, heart): not found in the cardiac tissue at any of the time points
detection in kidney ([6]; sc 11, kidney): found at 0.5 and 1 hour post drug
detection in liver ([6]; sc 11, liver): not detected in the liver 2, 4, or 8 hours post dosing
share of total drug (parent+metabolites) ([6]; sc 11, liver, 0.5 hour): 11%
share of total drug (parent+metabolites) ([6]; sc 11, liver, 1 hour): 2%
detection in pancreas ([6]; sc 11, pancreas): not found at any of the time points
detection in plasma ([6]; sc 11, plasma): None of the first oxidation product of alcohol 11, the dicarboxylic acid 12, was detected in the plasma
Log Papp [3]: −1.90
Rat ICE (%) ([7]; po): 8.8 ± 1.8%
Rat ICE (%) ([7]; sc): 6.5 ± 1.5%

SMILES: C[C@]1(C(=O)O)CSC(c2ccc(OCCCC(=O)O)cc2O)=N1 [Compound 13, (S)-4,5-dihydro-2-[2-hydroxy-4-(3-carboxypropyloxy)phenyl]-4-methyl-4-thiazolecarboxylic acid]
Cebus ICE (%) ([5]; po): 5.4±1.5%
Cebus ICE (%) ([5]; sc): 18.1±7.5%
detection in heart ([6]; sc 11, heart): not found in the later time points
tissue concentration ([6]; sc 11, heart, 0.5 hour): ~46 nmol/g wet weight
tissue concentration ([6]; sc 11, heart, 1 hour): ~46 nmol/g wet weight
detection in kidney ([6]; sc 11, kidney): not detectable 8 hours post dosing
tissue concentration ([6]; sc 11, kidney, 0.5 hour): ~300 nmol/g wet weight
tissue concentration ([6]; sc 11, kidney, 1 hour): ~300 nmol/g wet weight
detection in liver ([6]; sc 11, liver): no 13 remained in the liver
share of total drug (parent+metabolites) ([6]; sc 11, liver, 0.5 hour): 71%
share of total drug (parent+metabolites) ([6]; sc 11, liver, 1 hour): 59%
share of total drug (metabolites) ([6]; sc 11, liver, 2 hours): 66%
share of total drug (metabolites) ([6]; sc 11, liver, 4 hours): 70%
tissue concentration ([6]; sc 11, pancreas, 0.5 hour): 19 nmol/g wet weight
tissue concentration ([6]; sc 11, pancreas, 1 hour): 23 nmol/g wet weight
share of total (parent+metabolites) ([6]; sc 11, plasma, 0.5 hour): 62%
share of total (parent+metabolites) ([6]; sc 11, plasma, 4 hours): 50%
share of total (parent+metabolites) ([6]; sc 11, plasma, 8 hours): 65%
Log Papp [3]: −2.21
Rat ICE (%) ([7]; po): 3.7 ± 1.7%
Rat ICE (%) ([7]; sc): 4.3 ± 1.1%

SMILES: C[C@]1(C(=O)O)CSC(c2ccc(OCC(=O)O)cc2O)=N1 [Compound 14, (S)-4,5-dihydro-2-[2-hydroxy-4-(carboxymethoxy)phenyl]-4-methyl-4-thiazolecarboxylic acid]
Cebus ICE (%) ([5]; po): 3.0±2.7%
Cebus ICE (%) ([5]; sc): 15.9±4.3%
detection in heart ([6]; sc 11, heart): not found in the 2-8 hour time points
tissue concentration ([6]; sc 11, heart, 0.5 hour): 17 nmol/g wet weight
tissue concentration ([6]; sc 11, heart, 1 hour): 23 nmol/g wet weight
tissue concentration ([6]; sc 11, kidney, 0.5 hour): 156 nmol/g wet weight
tissue concentration ([6]; sc 11, kidney, 1 hour): 201 nmol/g wet weight
tissue concentration ([6]; sc 11, kidney, 2 hours): 161 nmol/g wet weight
tissue concentration ([6]; sc 11, kidney, 8 hours): 5 nmol/g wet weight
detection in liver ([6]; sc 11, liver): only trace amounts of 14 were detected
share of total drug (parent+metabolites) ([6]; sc 11, liver, 0.5 hour): 18%
share of total drug (parent+metabolites) ([6]; sc 11, liver, 1 hour): 39%
detection in pancreas ([6]; sc 11, pancreas): Trace amounts of 14 were found at 0.5, 1, and 2 hours post dosing
share of total (parent+metabolites) ([6]; sc 11, plasma, 0.5 hour): 16%
share of total (parent+metabolites) ([6]; sc 11, plasma, 4 hours): 50%
share of total (parent+metabolites) ([6]; sc 11, plasma, 8 hours): the remainder
Log Papp [3]: −1.98
Rat ICE (%) ([7]; po): 2.6 ± 1.6%
Rat ICE (%) ([7]; sc): 6.0 ± 1.9%
